Structures are written as SMILES.

Experiment [1] relates to hardwood trees. The experiment can be described thus: Growth Response for Post-Plant Treatments (Example 8), summary over treated species. The settings on record: post-plant (Table 8); all treated species except for Chinese chestnut. In kind it is in vivo. Here is the method:
(§1) Hybrid poplar seedlings were planted as stem cuttings.
(§2) Stem volume index is calculated as D^2H where D=groundline stem diameter and H=total height.

For experiment [2], the system named is hardwood trees. The experiment can be described thus: Growth Response for Pre-Plant Treatments (Example 7), summary over treated species. The experiment is classed as in vivo. The note with it: pre-plant (Table 7); all treated species, with the exceptions of chestnut oak and Chinese chestnut. Here is the method: as §1, §2

Regarding `Cc1ccc2c(c1)[C@H](Nc1nc(N)nc(C(C)F)n1)[C@@H](C)C2` (mixture of isomers) [indaziflam, N2-[(1R,2S)-2,3-dihydro-2,6-dimethyl-1H-inden-1-yl]-6-[(1RS)-1-fluoroethyl]-1,3,5-triazine-2,4-diamine], the growth response entry with hardwood trees [1] and with hardwood trees [2] was “positive growth response” in each case.
